Marks after values point to notes of the source that are not given here.
Legend:
[1] = Example 2: carcass, abdominal fat and yields of commercial cuts at 42 d; format: in vivo, Broiler Chicken (Cobb 500); details: for Abdominal fat yield / Breast fillets yield / Breast tenders yield / Drumsticks yield / Thighs yield / Wings yield: proportion of the carcass
Text: Study Animals: • Animal: Broiler Chicken • Breed/Strain: Cobb 500 • Description: Day-of-hatch male chicks, sexed at hatchery • Sex: Male
Processing: On day […] (12) birds are selected from each pen for processing (at 12 reps/trt: 576 birds in total; 144 birds/trt)
Dietary Treatments • Control (NC, negative control without PQQ) • 0.2 ppm PQQ • 0.5 ppm PQQ • 1 ppm PQQ

[2] = Example 2: broiler performance (body weight gain, feed intake, FCR), PQQ in diet, 0 to 42 days; format: in vivo, Broiler Chicken (Cobb 500)
Text: Study Animals: • Animal: Broiler Chicken • Breed/Strain: Cobb 500 • Description: Day-of-hatch male chicks, sexed at hatchery • Sex: Male Total number of treatments: 4 Total number of replicates per treatment: 12 Total number of chicks per replicate: […] Initial age: day-of-hatch: 0 days-of-age Final age: 6 weeks: 42 days-of-age. Feed will be changed based on the days of each phase. • Starter feed will be weighed out and fed from day 0 to 7. • Grower feed will be weighed, issued and fed from day 8 until 21. • Finisher feed will be weighed, issued and fed from day 22 until 35. • Withdraw feed will be weighed, issued and fed from day 36 until 42. Performance: Feed consumption and pen weights are determined on days 0, 21, 35 and 42 to calculate average body weight (BW), body weight gain (BWG) and feed conversion ratio (FCR). Final bird weights: At the end of the grow-out period (Day 42), all birds are weighed, as well as any and all remaining feed. Randomized Complete Block Design with 4 treatments×12 replicates/treatment (40 birds/pen), randomized within blocks across the barn to minimize differences in environmental condition. The pen is the experimental unit. Dietary Treatments • Control (NC, negative control without PQQ) • 0.2 ppm PQQ • 0.5 ppm PQQ • 1 ppm PQQ The results are presented in tables 5 to 13 below for broilers fed diets from 0 to 42 days (d) of age. The values given are the mean and the P value.

O=C(O)c1cc(C(=O)O)c2c(n1)C(=O)C(=O)c1cc(C(=O)O)[nH]c1-2 [PQQ, pyrroloquinoline quinone]
Abdominal fat weight ([1]; 0.2 ppm PQQ): 26 g | Breast fillets weight ([1]; 0.2 ppm PQQ): 680 g | Breast tenders weight ([1]; 0.2 ppm PQQ): 127ab g | Carcass yield (eviscerated carcass as a percentage of body weight) ([1]; 0.2 ppm PQQ): 80.3^b % | Drumsticks weight ([1]; 0.2 ppm PQQ): 467 g | Thighs weight ([1]; 0.2 ppm PQQ): 364 g | Wings weight ([1]; 0.2 ppm PQQ): 258 g | Abdominal fat yield ([1]; 0.2 ppm PQQ): 1.05% | Breast fillets yield ([1]; 0.2 ppm PQQ): 26.8% | Breast tenders yield ([1]; 0.2 ppm PQQ): 5.03^b % | Drumsticks yield ([1]; 0.2 ppm PQQ): 18.42^b % | Thighs yield ([1]; 0.2 ppm PQQ): 14.36^ab % | Wings yield ([1]; 0.2 ppm PQQ): 10.19^ab % | Abdominal fat weight ([1]; 0.5 ppm PQQ): 28 g | Breast fillets weight ([1]; 0.5 ppm PQQ): 677 g | Breast tenders weight ([1]; 0.5 ppm PQQ): 129ab g | Carcass yield (eviscerated carcass as a percentage of body weight) ([1]; 0.5 ppm PQQ): 80.4^b % | Drumsticks weight ([1]; 0.5 ppm PQQ): 473 g | Thighs weight ([1]; 0.5 ppm PQQ): 378 g | Wings weight ([1]; 0.5 ppm PQQ): 258 g | Abdominal fat yield ([1]; 0.5 ppm PQQ): 1.11% | Breast fillets yield ([1]; 0.5 ppm PQQ): 26.8% | Breast tenders yield ([1]; 0.5 ppm PQQ): 5.12^ab % | Drumsticks yield ([1]; 0.5 ppm PQQ): 18.73^ab % | Thighs yield ([1]; 0.5 ppm PQQ): 15.01^a % | Wings yield ([1]; 0.5 ppm PQQ): 10.42^a % | Abdominal fat weight ([1]; 1.0 ppm PQQ): 23 g | Breast fillets weight ([1]; 1.0 ppm PQQ): 702 g | Breast tenders weight ([1]; 1.0 ppm PQQ): 134a g | Carcass yield (eviscerated carcass as a percentage of body weight) ([1]; 1.0 ppm PQQ): 80.3^b % | Drumsticks weight ([1]; 1.0 ppm PQQ): 486 g | Thighs weight ([1]; 1.0 ppm PQQ): 366 g | Wings weight ([1]; 1.0 ppm PQQ): 259 g | Abdominal fat yield ([1]; 1.0 ppm PQQ): 0.90% | Breast fillets yield ([1]; 1.0 ppm PQQ): 27.4% | Breast tenders yield ([1]; 1.0 ppm PQQ): 5.22^a % | Drumsticks yield ([1]; 1.0 ppm PQQ): 18.89^a % | Thighs yield ([1]; 1.0 ppm PQQ): 14.24^b % | Wings yield ([1]; 1.0 ppm PQQ): 10.05^ab % | Cumulative feed intake of broilers ([2]; 0.2 ppm PQQ (T2), 1 t1o 42 d): 5365 g | Cumulative feed intake of broilers ([2]; 0.2 ppm PQQ (T2), 1 to1 21 d): 835 g | feed intake of broilers ([2]; 0.2 ppm PQQ (T2), 1 to 7 d): 158 g | cumulative body weight gain of broilers ([2]; 0.2 ppm PQQ (T2), 1 to 21 d): 624 g | cumulative feed conversion ratio of broilers ([2]; 0.2 ppm PQQ (T2), 1 to 21 d): 1.355 | cumulative body weight gain of broilers ([2]; 0.2 ppm PQQ (T2), 1 to 35 d): 2125 g | cumulative feed conversion ratio of broilers ([2]; 0.2 ppm PQQ (T2), 1 to 35 d): 1.494 | cumulative body weight gain of broilers ([2]; 0.2 ppm PQQ (T2), 1 to 42 d): 3204 g | cumulative feed conversion ratio of broilers ([2]; 0.2 ppm PQQ (T2), 1 to 42 d): 1.674 | feed intake of broilers ([2]; 0.2 ppm PQQ (T2), 8 to 21 d): 677 g | Cumulative feed intake of broilers ([2]; 0.2 ppm PQQ (T2), 11 to 35 d): 3173 g | feed intake of broilers ([2]; 0.2 ppm PQQ (T2), 22 to 35 d): 2346 g | feed intake of broilers ([2]; 0.2 ppm PQQ (T2), 36 to 42 d): 2218 g | Cumulative feed intake of broilers ([2]; 0.5 ppm PQQ (T3), 1 t1o 42 d): 5316 g | Cumulative feed intake of broilers ([2]; 0.5 ppm PQQ (T3), 1 to1 21 d): 853 g | feed intake of broilers ([2]; 0.5 ppm PQQ (T3), 1 to 7 d): 156 g | cumulative body weight gain of broilers ([2]; 0.5 ppm PQQ (T3), 1 to 21 d): 608 g | cumulative feed conversion ratio of broilers ([2]; 0.5 ppm PQQ (T3), 1 to 21 d): 1.402 | cumulative body weight gain of broilers ([2]; 0.5 ppm PQQ (T3), 1 to 35 d): 2123 g | cumulative feed conversion ratio of broilers ([2]; 0.5 ppm PQQ (T3), 1 to 35 d): 1.526 | cumulative body weight gain of broilers ([2]; 0.5 ppm PQQ (T3), 1 to 42 d): 3166 g | cumulative feed conversion ratio of broilers ([2]; 0.5 ppm PQQ (T3), 1 to 42 d): 1.675 | feed intake of broilers ([2]; 0.5 ppm PQQ (T3), 8 to 21 d): 699 g | Cumulative feed intake of broilers ([2]; 0.5 ppm PQQ (T3), 11 to 35 d): 3236 g | feed intake of broilers ([2]; 0.5 ppm PQQ (T3), 22 to 35 d): 2390 g | feed intake of broilers ([2]; 0.5 ppm PQQ (T3), 36 to 42 d): 2105 g | Cumulative feed intake of broilers ([2]; 1.0 ppm PQQ (T4), 1 t1o 42 d): 5449 g | Cumulative feed intake of broilers ([2]; 1.0 ppm PQQ (T4), 1 to1 21 d): 905 g | feed intake of broilers ([2]; 1.0 ppm PQQ (T4), 1 to 7 d): 159 g | cumulative body weight gain of broilers ([2]; 1.0 ppm PQQ (T4), 1 to 21 d): 630 g | cumulative feed conversion ratio of broilers ([2]; 1.0 ppm PQQ (T4), 1 to 21 d): 1.429 | cumulative body weight gain of broilers ([2]; 1.0 ppm PQQ (T4), 1 to 35 d): 2178 g | cumulative feed conversion ratio of broilers ([2]; 1.0 ppm PQQ (T4), 1 to 35 d): 1.540 | cumulative body weight gain of broilers ([2]; 1.0 ppm PQQ (T4), 1 to 42 d): 3188 g | cumulative feed conversion ratio of broilers ([2]; 1.0 ppm PQQ (T4), 1 to 42 d): 1.708 | feed intake of broilers ([2]; 1.0 ppm PQQ (T4), 8 to 21 d): 747 g | Cumulative feed intake of broilers ([2]; 1.0 ppm PQQ (T4), 11 to 35 d): 3357 g | feed intake of broilers ([2]; 1.0 ppm PQQ (T4), 22 to 35 d): 2459 g | feed intake of broilers ([2]; 1.0 ppm PQQ (T4), 36 to 42 d): 2113 g | influence on the body weight ([2]; each concentration (0.2, 0.5, 1.0 ppm)): positive influence

Reference: patent US20210161174A1, “FEED ADDITIVE FOR FARMED ANIMALS” (ADISSEO FRANCE S.A.S., priority 2018, published 2021)
